Results reported in ChEMBL document CHEMBL1649366, “Self-organizing molecular field analysis on human β-secretase nonpeptide inhibitors: 5, 5-disubstituted aminohydantoins” (Eur J Med Chem, 2011).

Target: Beta-secretase 1 (Homo sapiens, UniProt P56817)
Assay: Inhibition of human BACE1

Beta-secretase 1, sequence (P56817 whole entry): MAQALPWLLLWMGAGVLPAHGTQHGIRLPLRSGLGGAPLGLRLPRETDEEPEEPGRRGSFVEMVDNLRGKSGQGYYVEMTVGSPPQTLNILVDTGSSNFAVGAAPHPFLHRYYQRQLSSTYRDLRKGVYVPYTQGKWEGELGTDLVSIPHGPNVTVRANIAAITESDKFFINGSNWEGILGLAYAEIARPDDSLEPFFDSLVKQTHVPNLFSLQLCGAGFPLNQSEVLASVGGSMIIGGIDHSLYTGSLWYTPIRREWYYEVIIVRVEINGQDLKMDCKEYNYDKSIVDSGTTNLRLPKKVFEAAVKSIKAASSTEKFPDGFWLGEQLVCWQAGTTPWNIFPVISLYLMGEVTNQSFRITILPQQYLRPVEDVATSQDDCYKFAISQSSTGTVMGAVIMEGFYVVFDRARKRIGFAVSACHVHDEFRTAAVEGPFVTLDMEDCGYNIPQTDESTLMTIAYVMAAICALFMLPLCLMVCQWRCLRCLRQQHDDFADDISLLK

| SMILES | IC50 [µM] |
| --- | --- |
| NC1=NC(c2ccccc2)(c2ccccc2)C(=O)N1 | 20 |
| CCN1C(=O)C(c2ccccc2)(c2ccccc2)N=C1N | 8 |
| CCc1cc(C2(c3cccc(-c4cncnc4)c3)N=C(N)N(C)C2=O)cc(CC)n1 (centres undefined) | 0.03 |
| NC1=NC(c2ccccc2)(C2CCCCC2)C(=O)N1CCCO (centres undefined) | 4.8 |
